How the values were obtained:
MAFA expression [1] = assay: Stage 7 treatment, real-time PCR of MAFA (Example 7); type: cell-based, human; conditions: Stage 7, day 14, 2 μM R428 or 2-5 μM inhibitor substituted for R428, H1-derived cells, mRNA
Procedure: Cells of the human embryonic stem cell line H1 (WA01) were seeded as single cells at 1×10^5 cells/cm^2 on MATRIGEL™ (1:30 dilution) coated dishes in E8 media. At about 70 to 80% confluency, the cultures were washed in 1× incomplete DPBS followed by incubation with 1× TrypLE™ Express Enzyme for 3 to 5 minutes at 37° C. The released cells were rinsed with E8 and spun at 1000 rpm for 5 minutes. The resulting cell pellet was resuspended in E8 supplemented with 10 μM Y-27632 and the single cell suspension was seeded at approximately 1.3 to 1.5×10^5 cells/cm^2. The cultures were fed every day with E8 medium and differentiation, according to the following protocol, was initiated 48 hrs. following seeding resulting in an about 90% starting confluency.
Stage 6 cells were cultured for fourteen days in BLAR medium supplemented with a 1:100 dilution of ITS-X; 20 mM glucose (final); 1.5 g/L sodium bicarbonate; 2% FAF-BSA; 10 μg/ml of heparin, 10 μM ZnSO4, 1 μM T3 as 3,3′, 5-triiodo-L-thyronine sodium salt, 10 μM ALK5 inhibitor II, 1 mM N-acetyl cysteine. Some cultures also included one of 2 μM R428, 2-5 μM RSK inhibitor II (2-(3,5-Difluoro-4-hydroxy-anilino)-8-isopentyl-5,7-dimethyl-7H-pteridin-6-one) (EMD Millipore; Catalog No, 559286-5MG), 2-5 μM aurora kinase inhibitor II (EMD Millipore, or a combination of 2-5 μM RSK inhibitor II and 2-5 μM aurora kinase II inhibitor.
At Stage 7, day 14, mRNA was collected and compared to undifferentiated human stem cells.

CaMKIIIβ(h) = assay: Kinase profiling of R428; type: biochemical, human; conditions: 100 μM ATP, lower number = more robust inhibition
Procedure: The efficiency of the AXL inhibitor R428 for targeting different kinases was assessed by Kinase Profiling Services using 100 μM ATP concentration (EMD Millipore). R428 was tested at 1 and 10 μM. Table IV lists the kinases profiled along with the efficiency in targeting the kinases with a lower number indicating a more robust inhibition of a particular kinase.

MAFA expression [2] = assay: Small molecule screen at Stage 6 or 7, real-time PCR (Example 2); type: cell-based, human; conditions: added at Stage 7, 1 μM, H1-derived cells at air-liquid interface
Procedure: Cells of the human embryonic stem cell line H1 (WA01) at passage 42 were seeded as single cells at 1×10^5 cells/cm^2 on MATRIGEL™ (1:30 dilution)-coated dishes in a media comprising of DMEM-F12, GlutaMAX™ (1:100 dilution), 0.25 mM ascorbic acid, 100 ng/ml of FGF2 (R & D systems, MN), 1 ng/ml of TGF-β, ITS-X (1:100 dilution), 2% FAF-BSA, and 20 ng/ml of IGF-1, supplemented with 10 μM of Y-27632. Forty-eight hours post-seeding, the cultures were washed in incomplete PBS (phosphate buffered saline without Mg or Ca) followed by incubation with 1× TrypLE™ Express Enzyme (Life Science; Catalog No. 14190) for 3 to 5 minutes at 37° C. The released cells were rinsed with DMEM-F12 and spun at 1000 rpm for 5 minutes. The resulting cell pellet was resuspended in DMEM-F12 supplemented with 10 μM Y-27632, 1× GlutaMAX™, 0.25 mM ascorbic acid, 100 ng/ml FGF2, 1 ng/ml TGF-β, ITS-X at a 1:100 dilution, 2% FAF-BSA and 20 ng/ml of IGF-1 and the single cell suspension was seeded at approximately 1.3 to 1.5×10^5 cells/cm^2. The cultures were fed every day with medium and differentiation, according to the following protocol, was initiated 48 hours following seeding resulting in an about 90% starting confluency. […]
At Stages 6 or 7, various small molecules were added and their effect was evaluated by real-time PCR.

Nc1nc(Nc2ccc3c(c2)CC[C@@H](N2CCCC2)CC3)nn1-c1cc2c(nn1)-c1ccccc1CCC2 [R428, 1H-1,2,4-Triazole-3,5-diamine, 1-(6,7-dihydro-5H-benzo[6,7]cyclohepta[1,2-c]pyridazin-3-yl) N3-[(7S)-6,7,8,9-tetrahydro-7-(1-pyrrolidinyl)-5H-benzocyclohepten-2-yl]-]
MAFA expression (MAFA expression [1]): removal of R428 resulted in a significant decrease in MAFA expression | efficiency in targeting CaMKIIIβ(h) (CaMKIIIβ(h); R428 @ 1 μM): 76 | efficiency in targeting CaMKIIIβ(h) (CaMKIIIβ(h); R428 @ 10 μM): 5 | expression of MAFA as compared to untreated cultures (MAFA expression [2]): significantly upregulated
